Data as given in patent US7094781B2, “Sulfamides and their use as endothelin receptor antagonists” (Actelion Pharmaceuticals Ltd., priority 2000, dated 2006).
pIC50: −log10 of the molar value.

Columns and labels:
[1] = biological target: T1, human recombinant ETB receptor (Homo sapiens, UniProt P24530); test: Inhibition of [125I]ET-1 binding to membranes from CHO cells carrying human ETB receptors
T1 construct: expressed in transfected cells; host or cells: CHO cells (microsomal membranes)
T1 sequence (P24530 27-442): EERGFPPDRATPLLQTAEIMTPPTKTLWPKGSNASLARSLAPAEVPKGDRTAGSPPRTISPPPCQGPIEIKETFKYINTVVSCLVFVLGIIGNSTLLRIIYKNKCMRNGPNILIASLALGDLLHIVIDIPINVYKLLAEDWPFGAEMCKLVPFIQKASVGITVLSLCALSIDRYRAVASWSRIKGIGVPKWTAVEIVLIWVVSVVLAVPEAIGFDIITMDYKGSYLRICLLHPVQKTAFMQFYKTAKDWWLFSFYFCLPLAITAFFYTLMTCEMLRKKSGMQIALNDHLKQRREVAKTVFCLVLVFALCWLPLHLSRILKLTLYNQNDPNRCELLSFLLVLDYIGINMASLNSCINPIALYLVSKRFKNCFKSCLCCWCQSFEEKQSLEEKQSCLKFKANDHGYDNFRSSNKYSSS

[2] = biological target: T2, human recombinant ETA receptor (Homo sapiens, UniProt P25101); test: Inhibition of [125I]ET-1 binding to membranes from CHO cells carrying human ETA receptors
T2 construct: expressed in transfected cells; host or cells: CHO cells (microsomal membranes)
T2 sequence (P25101 21-427): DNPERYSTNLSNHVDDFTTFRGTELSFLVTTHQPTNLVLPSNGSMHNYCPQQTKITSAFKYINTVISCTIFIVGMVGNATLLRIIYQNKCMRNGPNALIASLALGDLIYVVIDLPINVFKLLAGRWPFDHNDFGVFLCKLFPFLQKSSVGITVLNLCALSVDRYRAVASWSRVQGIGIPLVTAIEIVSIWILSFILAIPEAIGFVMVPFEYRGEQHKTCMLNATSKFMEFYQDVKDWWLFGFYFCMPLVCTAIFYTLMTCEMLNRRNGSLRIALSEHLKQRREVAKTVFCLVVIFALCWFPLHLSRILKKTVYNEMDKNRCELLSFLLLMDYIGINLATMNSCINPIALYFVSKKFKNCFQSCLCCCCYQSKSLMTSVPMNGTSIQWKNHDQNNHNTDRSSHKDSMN

pIC50 [1] | pIC50 [2] | Compound
6.00 | 8.15 | COc1cnc(OCCOc2ncnc(NS(=O)(=O)NCc3cccs3)c2-c2ccc(Cl)cc2)nc1 [Example 21]
7.04 | 8.81 | COc1ccccc1Oc1c(NS(=O)(=O)NCc2ccccc2)ncnc1OCCOc1ncc(SC)cn1 [Example 97]
5.88 | 7.82 | COc1ccccc1Oc1c(NS(=O)(=O)NCc2ccc3c(c2)OCO3)nc(-c2ccncc2)nc1OC [Example 149]
7.10 | 8.96 | COc1cnc(OCCOc2ncnc(NS(=O)(=O)NCc3ccc4c(c3)OCO4)c2Oc2cc(OC)ccc2Cl)nc1 [Example 152]
5.98 | 6.41 | COc1ccccc1Oc1c(NS(=O)(=O)NCc2ccccc2)nc(S(C)(=O)=O)nc1OCCO [Example 204, Benzylsulfamic acid [6-(2-hydroxy-ethoxy)-2-methanesulfonyl-5-(2-methoxy-phenoxy)-pyrimidin-4-yl]-amide]
– | 7.87 | CCc1ccc(-c2c(NS(=O)(=O)NCc3ccccc3)ncnc2OCCOc2ncc(Br)cn2)cc1 [Example 29]
< 6.00 | 8.64 | CSc1cnc(OCCOc2nc(-c3ccncc3)nc(NS(=O)(=O)NCc3ccccc3)c2-c2ccc(Cl)cc2)nc1 [Example 110]
6.70 | 8.80 | COc1ccccc1Oc1c(NS(=O)(=O)NCc2ccco2)nc(-c2ncccn2)nc1OCCOC(=O)Nc1cnccn1 [Example 61]
< 5.00 | 7.27 | O=S(=O)(NCc1ccccc1)Nc1nc(-c2ncccn2)nc(OCCOc2ncc(Br)cn2)c1-c1ccccc1 [Example 26]
6.24 | 8.37 | COc1cnc(OCCOc2ncnc(NS(=O)(=O)NCC3CC3)c2-c2ccc(Cl)cc2)nc1 [Example 113]
6.73 | 8.62 | COc1cnc(OCCOc2nc(-c3ncccn3)nc(NS(=O)(=O)NCC3CCCCC3)c2Oc2ccccc2OC)nc1 [Example 134]
< 6.00 | 6.13 | C=CCOc1nc(-c2ccnc(-c3nnn[nH]3)c2)nc(NS(=O)(=O)NCc2ccccc2)c1Oc1ccccc1OC [Example 209, Benzylsulfamic acid [6-allyloxy-5-(2-methoxy-phenoxy)-2-[2-(1H-tetrazol-5-yl)-pyridin-4-yl]-pyrimidin-4-yl]-amide]
6.47 | 7.77 | COc1ccccc1Oc1c(NS(=O)(=O)NCc2ccccc2)nc(-c2ccnc(-c3nnn[nH]3)c2)nc1OCCO [Example 208, Benzylsulfamic acid [6-(2-hydroxy-ethoxy)-5-(2-methoxy-phenoxy)-2-[2-(1H-tetrazol-5-yl)-pyridin-4-yl]-pyrimidin-4-yl]-amide]
7.10 | 9.36 | COc1ccc(CNS(=O)(=O)Nc2ncnc(OCCOc3ncc(Br)cn3)c2Oc2cc(OC)ccc2Cl)cc1 [Example 163]
6.45 | 8.02 | COc1ccccc1Oc1c(NS(=O)(=O)NC2CC2)nc(-c2ccncc2)nc1OCCOc1ncc(Br)cn1 [Example 202]
6.91 | 8.25 | COc1cnc(OCCOc2nc(-c3ncccn3)nc(NS(=O)(=O)NCc3ccco3)c2Oc2ccccc2OC)nc1 [Example 59]
– | 7.63 | COc1ccccc1Oc1c(NS(=O)(=O)NCc2ccccc2)nc(-c2cnccn2)nc1OCCOc1ncc(Br)cn1 [Example 71]
6.22 | 8.43 | CSc1cnc(OCCOc2nc(-c3ccncc3)nc(NS(=O)(=O)NCc3ccccc3)c2-c2ccc(C)cc2)nc1 [Example 33]
6.46 | 8.43 | COc1ccccc1Oc1c(NS(=O)(=O)NCC2CCCCC2)nc(-c2ccncc2)nc1OCCOc1ncc(Br)cn1 [Example 130]
– | 7.53 | CCNS(=O)(=O)Nc1nc(-c2ncccn2)nc(OCCOc2ncc(Br)cn2)c1Oc1ccccc1OC [Example 184]

pIC50 [1] | pIC50 [2] | Compound
6.21 | 6.87 | COc1ccccc1Oc1c(NS(=O)(=O)NCc2ccccc2)nc(N2CCOCC2)nc1OCCO [Example 205, benzylsulfamic acid [6-(2-hydroxy-ethoxy)-5-(2-methoxy-phenoxy)-2-morpholin-4-yl-pyrimidin-4-yl]-amide]
5.60 | 8.66 | O=S(=O)(NCc1ccco1)Nc1ncnc(OCCOc2ncc(Br)cn2)c1-c1ccc(Cl)cc1 [Example 24]
– | 7.80 | COc1ccccc1Oc1c(NS(=O)(=O)NCc2ccccc2)nc(C2CC2)nc1OCCOc1ncc(Br)cn1 [Example 88]
7.24 | 9.11 | COc1ccc(Cl)c(Oc2c(NS(=O)(=O)NCc3ccc4c(c3)OCO4)ncnc2OCCOc2ncc(Br)cn2)c1 [Example 151]
7.10 | 8.60 | COc1ccccc1Oc1c(NS(=O)(=O)NCc2ccccc2)nc(C2CC2)nc1OCCOC(=O)Nc1ccccn1 [Example 91]
7.33 | 8.84 | COc1ccc(CNS(=O)(=O)Nc2nc(-c3ncccn3)nc(OCCOc3ncc(Br)cn3)c2Oc2ccccc2OC)cc1 [Example 48]
6.25 | 8.89 | CCNS(=O)(=O)Nc1ncnc(OCCOc2ncc(SC)cn2)c1-c1ccc(Cl)cc1 [Example 116]
5.73 | 7.54 | COc1ccccc1Oc1c(NS(=O)(=O)NCCc2ccccc2)nc(-c2ccncc2)nc1OCCOc1ncc(Br)cn1 [Example 182]
– | 8.72 | COc1ccccc1Oc1c(NS(=O)(=O)NCc2ccccc2)nc(-c2ccncc2)nc1OCCOc1ncc(Br)cn1 [Example 73]
7.09 | 9.00 | COc1ccc(CNS(=O)(=O)Nc2ncnc(OCCOc3ncc(OC)cn3)c2Oc2cc(OC)ccc2Cl)cc1 [Example 164]
6.69 | 9.16 | CCNS(=O)(=O)Nc1ncnc(OCCOc2ncc(SC)cn2)c1-c1ccc(Br)cc1 [Example 105]
6.38 | 8.94 | CSc1cnc(OCCOc2ncnc(NS(=O)(=O)NC3CC3)c2-c2ccc(Br)cc2)nc1 [Example 197]
6.65 | 7.84 | COc1ccccc1Oc1c(NS(=O)(=O)NCCc2ccccc2)nc(-c2ccncc2)nc1OCCOC(=O)Nc1ccccc1 [Example 181]
– | 8.01 | COc1ccccc1Oc1c(NS(=O)(=O)N(C)Cc2ccccc2)nc(-c2ncccn2)nc1OCCOc1ncc(Br)cn1 [Example 187]
– | 9.06 | CCNS(=O)(=O)Nc1ncnc(OCCOc2ncc(Br)cn2)c1-c1ccc(Br)cc1 [Example 104]
– | 8.36 | O=S(=O)(Nc1ncnc(OCCOc2ncc(Br)cn2)c1-c1ccc(Br)cc1)NC1CC1 [Example 196]
– | 8.51 | COc1ccc(Cl)c(Oc2c(NS(=O)(=O)NCc3ccccc3)ncnc2OCCOc2ncc(Br)cn2)c1 [Example 212, Benzylsulfamic acid [6-[2-(5-bromo-pyrimidin-2-yloxy)-ethoxy]-5-(2-chloro-5-methoxy-phenoxy)-pyrimidin-4-yl]-amide]
– | 8.99 | COc1ccccc1Oc1c(NS(=O)(=O)NCc2ccccc2)nc(N2CCOCC2)nc1OCCOc1ncc(Br)cn1 [Example 206, Benzylsulfamic acid [6-[2-(5-bromo-pyrimidin-2-yloxy)-ethoxy]-5-(2-methoxy-phenoxy)-2-morpholin-4-yl-pyrimidin-4-yl]-amide]
– | 8.20 | COc1ccccc1Oc1c(NS(=O)(=O)NCc2ccccc2)ncnc1OCCOc1ncc(Br)cn1 [Example 96]
